Test results taken from patent publication US20010007675A1, “Cosmetic and dermatological compositions containing aminoalchohol derivatives containing a urea functional group and uses thereof” (L'OREAL, priority 1996, published 2001).

Key:
[1] = Measurement of the imperceptible water loss (IWL) with an evaporimeter (Servomed); details: compound at 1% in dichloromethane/methanol (2/1 v/v), applied on delipidated stratum corneum; measured 20 hours after application
Experimental: Measurement of the imperceptible water loss (IWL)
This measurement was carried out using an evaporimeter (Servomed) which quantitatively determines the evaporation of water, that is transportation of water by diffusion, from a stratum corneum sample which seals a cylindrical capsule containing water, the whole assembly being placed in a chamber with controlled relative temperature and controlled relative humidity.
Sensors made it possible to measure the partial vapour pressure of water at two points situated at different distances from the sample.
The partial vapour pressure of water gradient between the two points was thus determined and therefore the degree of evaporation in accordance with Fick's law.
This measurement is carried out for:
The compounds were prepared in the proportion of 1% in a dichloromethane/methanol (2/1 v/v) mixture and then applied on pieces of delipidated stratum comeum.
The imperceptible water loss (IWL) for each compound was measured 20 hours after application.

Structure (SMILES) | I.W.L. (imperceptible water loss) [1] | melting point
CCCCCCCCCCCC(=O)N(C)C[C@H](O)[C@@H](O)[C@H](O)[C@H](O)CO [Reference A, N-dodecanoyl-N-methyl-D-glucamine] | −11 +/− 3 | –
CCCCCCCCCCCCOC(=O)N(C)C[C@H](O)[C@@H](O)[C@H](O)[C@H](O)CO [Reference B, N-dodecyloxycarbonyl-N-methyl-D-lucamine] | −9 +/− 2 | –
CCCCCCCCNC(=O)N(C)C[C@H](O)[C@@H](O)[C@H](O)[C@H](O)CO [Example 8, N-octylaminocarbonyl-N-methyl-D-glucamine] | – | 111.4 °C
CCCCCCCCCCCCNC(=O)N(C)C[C@H](O)[C@@H](O)[C@H](O)[C@H](O)CO [Example 1, N-dodecylaminocarbonyl-N-methyl-D-glucamine] | −21 +/− 2 | 116.8 °C
